The subject of one series is naïve C57Bl/6 mice. The series is described as follows: Open field test in naïve mice. Format: in vivo, C57Bl/6 male mice. The following applies: 1, 10, 20 mg/kg once per os, 1 h after dosing. The method, then: The studied agent in a dose of 1 mg/kg, 10 mg/kg, and 20 mg/kg or saline was administered once per os in a water-Tween 80 solution to 8 mice per group of C57Bl/6 mice. The main markers of the locomotor activity movement distance (cm) and duration of locomotor activity (s) were registered with the open field test performed for 2 min using Tru Scan (USA), 1 h after the administration of the studied agent.

For series [1], the system named is nigrostriatal dopamine system of MPTP-treated mice. The series is described as follows: TH immunohistochemistry of striatum and substantia nigra in MPTP-treated mice. Format: in vivo, C57Bl/6 male mice. The method, then:
The samples were collected 7 days after the last administration of PA96. Mice were anesthetized using terminal phenobarbital injection (50 mg/kg), perfused trans-cardially with PBS, and then 4% paraformaldehyde in PBS in accordance with. The brains were collected, treated, and embedded into paraffin blocks using the histological complex Microm (Fürth, Germany).
To analyze the effect of PA96 in dopamine neurons in vivo, tyrosine hydroxylase immunohistochemistry was performed as described previously. The PFA-fixed and paraffin-embedded brains were cut into 5 µm thick sections (3 sections per slide), and every fifth slide was taken for TH staining. The sections were deparaffinized, followed by a citrate antigen retrieval procedure. Endogenous peroxidase was inactivated by 30 min incubation with 3% H2O2. The sections were blocked with 5% normal goat serum and then probed with monoclonal TH antibody (1:2000, Millipore Cat# MAB318 Lot# RRID:AB_2201528) overnight at +4 °C. The sections were washed, and biotinylated horse antimouse secondary antibody (1:200, Cat# BA-2001, Vector Laboratories, Burlingame, CA, USA) was applied for 1 h, followed by washing. […]
The sections were scanned with an automated scanner (3DHistech, Budapest, Hungary), and the images were converted to 16-bit grayscale. […] The integrated optical densities in images were measured in ImageJ (NIH) and divided by area in pixels.

Series [2] is described as follows: Pharmacokinetics in whole blood after a single oral dose (HPLC-MS/MS). Format: in vivo, CD1 IGS mice. The following applies: single oral 10 mg/kg. The protocol: Six CD1 IGS mice were administered orally with the compound PA96 in Tween 80 at doses of 10 mg/kg. Blood was collected from the tail after the amputation of a small distal piece. Time points were 5, 10, 30, 60, and 120 min after injection. Experimental blood samples were transferred into tubes for the precipitation of blood proteins with a mixture of zinc sulfate and methanol (2:8, v/v). A set of calibrators were prepared in advance, followed by their preparation protocol, and analyzed by HPLC-MS/MS for standard comparison. The calibration curve was built in the range of 25–2000 ng/mL. According to the signal-concentration profile, the content of PA96 in the experimental blood samples at each time point was calculated.
The stock solution of PA96 (1.0 mg/mL) was prepared by dissolving an accurately weighed amount of the substance in 100% methanol. To obtain a set of working solutions with concentrations of 0.01, 0.05, 0.1, 0.25, 0.5, 1, 2.5, 5, 7.5, 10, 15, and 20 µg/mL, the stock solution of PA96 was diluted with methanol. Calibration standards (calibrators) were prepared by mixing 10 μL of each individual working solution and 90 μL of mouse whole blood. Samples were stirred gently on an orbital shaker at 1000 rpm and left at 4 °C for 1 h for equilibration. The stock solution of IS with a concentration of 1.0 mg/mL was prepared by dissolving a weighed amount of 2-adamantylamine hydrochloride in pure methanol. The solution for the protein precipitation procedure was a mixture of 2 parts of 0.2 M aqueous solutions of zinc sulfate per 8 parts of a solution of IS in methanol with a concentration of 10 µg/mL. All solutions were stored at −18 °C and brought to their ambient temperature before use.
An aliquot of 10 µL of each whole blood sample was placed into an Eppendorf microtube (1.5 mL), then the precipitation solution of 50 µL was added to each tube. All samples were vortexed for 20–30 s and then centrifuged (Eppendorf MiniSpin, Eppendorf, Germany) for 10 min at 13,400 rpm. The supernatant was transferred into a chromatographic vial and analyzed.
The LC-MS/MS analysis was performed using an LC-20AD Prominence chromatograph equipped with an autosampler thermostated at +10 °C (Shimadzu, Japan) and a 3200 QTRAP mass spectrometer equipped with an ESI source (AB SCIEX, USA). Separation was achieved on a ProntoSil-120-5-C18 AQ column (2.0 × 75 mm, 5 μm particles, (EcoNova, Novosibirsk, Russia)) thermostated at +35 °C. The mobile phase was composed of water containing 0.1% formic acid (eluent A) and methanol containing 0.1% formic acid (eluent B). The gradient elution program was as follows: 0 min-10% (B); 0.5 min-10% (B); 7 min-98% (B); 9 min-98% (B); the flow rate was 200 μL/min.
The mass spectrometer was operated using multiple reaction monitoring (MRM) in positive ion mode. Ionization was conducted by applying a voltage of 5500 V, and the source temperature was set at +350 °C. For the analyte and IS, the optimized source parameters, viz. CUR (curtain gas), GS1 (Gas 1), and GS2 (Gas 2) were set at 20 psi. The CAD (collisionally activated dissociation) gas was nitrogen, and the parameter was set as high. The parameters of PA96, viz. MRM transitions, declustering potentials (DP), collision energies (CE), and collision cell exit potentials (CXP) are presented in Table 3. The dwell time was 100 msec. Analyst 1.6.2 software (AB SCIEX, USA) was used for instrument control and data acquisition, and MultiQuant 2.1 software (AB SCIEX, USA) was used for quantification. To calculate the main pharmacokinetic parameters, the Microsoft Excel–PKSolver was used.

In another series the test system is MPTP-treated mice. Kind of series: Coat hanger test in the acute MPTP mouse model of PD. Format: in vivo, C57Bl/6 male mice.
[3] abbreviates: CD1 IGS, mouse, whole blood, blood.

Take `C=C(C)[C@@H]1CC=C(C)[C@@H](Sc2nc[nH]n2)[C@@H]1O` [PA96, (1R,2R,6S)-2-(1H-1,2,4-triazol-3-ylthio)-3-methyl-6-(prop-1-en-2-yl)cyclohex-3-enol]: in the series with naïve C57Bl/6 mice, the “locomotor activity of naive animals (movement distance, duration)” value is on record as “did not activate”. For the same molecule, the “increase of the number of TH-positive neurons in SN” value in series [1] (1 mg/kg, compared to MPTP-treated mice) came to 37%. In addition, the “density of TH-positive fibers in the striatum (loss induced by MPTP)” value in series [1] (1 and 10 mg/kg) is “not alleviated”. For the same molecule, the half-life in series [2] (CD1 IGS, mouse, whole blood, po, 10 mg/kg, blood) is around 24 min. Further, in series [2] (setting [3]), the AUC0-t was 278 ng·h/mL, the Cmax is 550 ng/mL and the time to peak (Tmax) was 5 min. Further, the AUC(0-inf) in series [2] (CD1 IGS, mouse, whole blood, blood, read-out: AUC0-inf_obs) was determined as 290 ng·h/mL. In addition, the MRT inf in series [2] (CD1 IGS, mouse, whole blood, blood, read-out: MRT0-inf_obs (converted)) is 29.7 min. Besides, in series [2] (blood), the Cl/F_obs entry was “(5.8 ± 0.6) × 10^−4 (mg/kg)/(ng/mL)/min” and the Vz/F_obs entry is given as “(18.9 ± 0.6) × 10^−3 (ml/kg)/(ng/mL)”. The “time at which the minimum detectable concentration in blood was observed” value in series [2] stood at 1 h. In addition, the “antiparkinsonian activity in vivo (effective dose)” value with MPTP-treated mice (MPTP mouse model, per os) was 1 mg/kg. Further, the coat hanger score in the series on MPTP-treated mice (MPTP-treated mice, 1 mg/kg, 60 s time point, MPTP 3.6 ± 1.0, p = 0.0324) came to 6.7 ± 0.2. In addition, in the series on MPTP-treated mice (MPTP-treated mice, 1 mg/kg, vs MPTP), the “increase of movement time in coat hanger test” value came out at 40%. The coat hanger score result with MPTP-treated mice (MPTP-treated mice, 10 mg/kg, p = 0.0622) is listed as “trend toward increasing the score”.

The half-life is how long it takes for the measured level to halve. A lower half-life goes with fast loss. The term Cmax denotes the maximum level reached in the sampled fluid or tissue. As a reminder, the Tmax is the time from dosing to the highest level.

Source of the values: publication PMC9738927, “A Newly Identified Monoterpenoid-Based Small Molecule Able to Support the Survival of Primary Cultured Dopamine Neurons and Alleviate MPTP-Induced Toxicity In Vivo” (Molecules, 2022).
